Test results taken from patent publication US20240327412A1, “FACTOR XIIA INHIBITORS” (KALVISTA PHARMACEUTICALS LIMITED, priority 2021, published 2024).

Legend:
Type in all cases: biochemical
Human Factor XIIa = target: T1, Human Factor XIIa (Homo sapiens, UniProt P00748); experiment: Determination of FXIIa inhibition (fluorogenic substrate H-DPro-Phe-Arg-AFC, IC50 assay); settings: substrate at Km concentration, 25° C.; category scale; read-out: Human FXII IC50 (nm)
T1 construct: Proteolytic cleavage of FXII to heavy and light chains of FXIIa dramatically increases catalytic activity; purchased Enzyme Research Laboratories
T1 sequence (P00748 373-615 limits assumed): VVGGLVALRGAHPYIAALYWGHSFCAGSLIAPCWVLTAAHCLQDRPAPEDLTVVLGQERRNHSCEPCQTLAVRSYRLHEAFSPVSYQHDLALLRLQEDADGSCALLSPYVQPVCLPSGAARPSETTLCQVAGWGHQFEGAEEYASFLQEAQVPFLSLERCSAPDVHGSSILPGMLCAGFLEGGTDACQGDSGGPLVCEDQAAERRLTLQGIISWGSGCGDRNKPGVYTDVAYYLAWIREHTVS
T1 sequence (P00748 20-372 partner limits assumed): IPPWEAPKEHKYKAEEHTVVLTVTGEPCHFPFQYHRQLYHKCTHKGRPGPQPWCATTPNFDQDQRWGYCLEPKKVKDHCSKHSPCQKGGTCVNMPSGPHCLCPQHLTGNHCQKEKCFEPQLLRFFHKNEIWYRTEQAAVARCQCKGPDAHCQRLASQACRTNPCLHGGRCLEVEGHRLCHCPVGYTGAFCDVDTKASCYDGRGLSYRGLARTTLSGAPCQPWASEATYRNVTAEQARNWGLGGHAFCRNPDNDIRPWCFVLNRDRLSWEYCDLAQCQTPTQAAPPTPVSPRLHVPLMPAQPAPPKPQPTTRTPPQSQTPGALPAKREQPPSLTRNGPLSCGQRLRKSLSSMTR
In short: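 Human FXIIa incubated at 25° C. with fluorogenic H-DPro-Phe-Arg-AFC at its Km concentration plus varying compound levels. Linear fluorescence increase over 5 min taken as % activity; IC50 is concentration halving uninhibited activity.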

Plasma Kallikrein = target: T2, Plasma Kallikrein (Homo sapiens, UniProt P03952); experiment: Related protease inhibition: Plasma Kallikrein (fluorogenic substrate at Km); settings: class symbols per Table 18, read-out: IC50 (human PKal)
T2 construct: FXIIa converts plasma prekallikrein (PK) to plasma kallikrein (PKa)
In short: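 Each human protease was incubated with substrate and test compound over a concentration range; fluorescence release was then recorded for 5 min at 25° C. Rates were normalized to uninhibited enzyme (100%) to derive IC50.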

KLK1 = KLK1 (Homo sapiens, UniProt P06870); experiment: Related protease inhibition: KLK1 (fluorogenic substrate at Km); settings: class symbols per Table 18
In short: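 Protease activity against a fluorogenic substrate (Km level; 100 μM fixed for FXIa) is measured at 25° C across various inhibitor concentrations. Liberated fluorescence is tracked for 5 min, and slopes are expressed relative to uninhibited enzyme to give the IC50.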

FXa = FXa (Homo sapiens, UniProt P00742); experiment: Related protease inhibition: FXa (fluorogenic substrate at Km); settings: class symbols per Table 18
Procedure: (§1) In vitro inhibition of related proteases was determined using an IC50 assay based on standard literature methods (see e.g. Shori et al., Biochem. Pharmacol., 1992, 43, 1209; Bouckaert et al., European Journal of Medicinal Chemistry 110 (2016) 181). Human serine protease enzyme Plasma Kallikrein, KLK1, FXa, Plasmin, Thrombin and Trypsin were assayed for enzymatic activity using an appropriate fluorogenic substrate at Km concentration, FXIa at fixed substrate concentration of 100 μM and various concentrations of the test compound. Protease activity was measured by monitoring the accumulation of liberated fluorescence from the substrate over 5 min at 25° C. The linear rate of fluorescence increase per minute was expressed as percentage (%) activity. IC50 values were calculated as the concentration of inhibitor giving 50% inhibition of the uninhibited enzyme activity (100%).

Plasmin = Plasmin (Homo sapiens, UniProt P00747); experiment: Related protease inhibition: Plasmin (fluorogenic substrate at Km); settings: class symbols per Table 18
Procedure: as §1

Thrombin = Thrombin (Homo sapiens, UniProt P00734); experiment: Related protease inhibition: Thrombin (fluorogenic substrate at Km); settings: class symbols per Table 18
Procedure: as §1

Trypsin = Trypsin (Homo sapiens, UniProt P07477); experiment: Related protease inhibition: Trypsin (fluorogenic substrate at Km); settings: class symbols per Table 18
Procedure: as §1

T2 sequence (P03952 391-638 limits assumed): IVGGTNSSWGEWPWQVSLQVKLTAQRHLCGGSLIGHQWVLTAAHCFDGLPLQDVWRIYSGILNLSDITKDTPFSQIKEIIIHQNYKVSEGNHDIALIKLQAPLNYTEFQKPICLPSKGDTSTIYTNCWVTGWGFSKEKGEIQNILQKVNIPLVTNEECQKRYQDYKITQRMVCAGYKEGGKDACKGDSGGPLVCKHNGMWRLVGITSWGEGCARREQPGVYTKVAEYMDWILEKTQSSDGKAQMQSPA
T2 sequence (P03952 20-390 partner limits assumed): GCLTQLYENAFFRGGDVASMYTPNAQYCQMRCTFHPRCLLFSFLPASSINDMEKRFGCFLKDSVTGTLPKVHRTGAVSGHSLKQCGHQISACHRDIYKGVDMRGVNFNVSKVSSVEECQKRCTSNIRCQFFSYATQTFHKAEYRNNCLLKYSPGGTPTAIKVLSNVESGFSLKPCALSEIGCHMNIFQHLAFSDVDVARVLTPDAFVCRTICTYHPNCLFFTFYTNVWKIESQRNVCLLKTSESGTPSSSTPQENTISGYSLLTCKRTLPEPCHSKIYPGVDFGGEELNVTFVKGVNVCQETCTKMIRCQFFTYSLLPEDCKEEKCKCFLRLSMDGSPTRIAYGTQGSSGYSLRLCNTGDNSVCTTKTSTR
Sequence of FXa (P00742 235-488 limits assumed): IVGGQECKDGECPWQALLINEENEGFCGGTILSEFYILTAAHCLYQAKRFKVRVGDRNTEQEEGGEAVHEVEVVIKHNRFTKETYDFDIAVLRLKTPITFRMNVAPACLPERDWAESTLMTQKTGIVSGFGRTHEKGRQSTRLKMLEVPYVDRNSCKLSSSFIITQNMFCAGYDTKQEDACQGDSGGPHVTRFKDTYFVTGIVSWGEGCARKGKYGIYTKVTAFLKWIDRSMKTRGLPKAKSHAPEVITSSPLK
Sequence of FXa (P00742 41-179 partner limits assumed): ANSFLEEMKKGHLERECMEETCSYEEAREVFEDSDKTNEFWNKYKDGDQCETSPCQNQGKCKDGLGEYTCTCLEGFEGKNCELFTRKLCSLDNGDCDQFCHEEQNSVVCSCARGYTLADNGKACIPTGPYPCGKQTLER
Sequence of Plasmin (P00747 581-810 limits assumed): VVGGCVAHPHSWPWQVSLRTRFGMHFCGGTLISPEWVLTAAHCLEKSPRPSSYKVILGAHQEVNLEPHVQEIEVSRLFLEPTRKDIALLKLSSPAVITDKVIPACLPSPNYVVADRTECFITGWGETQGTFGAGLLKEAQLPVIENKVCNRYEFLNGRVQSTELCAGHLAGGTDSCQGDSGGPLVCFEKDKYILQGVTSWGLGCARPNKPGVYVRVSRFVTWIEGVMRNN
Sequence of Plasmin (P00747 97-580 partner limits assumed): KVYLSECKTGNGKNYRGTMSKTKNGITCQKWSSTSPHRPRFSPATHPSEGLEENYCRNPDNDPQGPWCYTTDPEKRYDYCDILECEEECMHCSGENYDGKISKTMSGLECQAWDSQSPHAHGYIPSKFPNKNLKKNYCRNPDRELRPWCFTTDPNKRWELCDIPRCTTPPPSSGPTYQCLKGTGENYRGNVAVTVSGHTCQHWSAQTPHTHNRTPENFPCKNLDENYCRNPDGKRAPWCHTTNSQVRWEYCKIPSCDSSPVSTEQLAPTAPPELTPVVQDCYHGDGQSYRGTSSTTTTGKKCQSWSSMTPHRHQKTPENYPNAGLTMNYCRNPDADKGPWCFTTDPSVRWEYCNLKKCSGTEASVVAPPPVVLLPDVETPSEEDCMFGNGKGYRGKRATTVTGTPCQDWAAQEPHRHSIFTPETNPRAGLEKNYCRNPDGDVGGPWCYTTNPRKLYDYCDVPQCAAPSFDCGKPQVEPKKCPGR
Sequence of KLK1 (P06870 25-262): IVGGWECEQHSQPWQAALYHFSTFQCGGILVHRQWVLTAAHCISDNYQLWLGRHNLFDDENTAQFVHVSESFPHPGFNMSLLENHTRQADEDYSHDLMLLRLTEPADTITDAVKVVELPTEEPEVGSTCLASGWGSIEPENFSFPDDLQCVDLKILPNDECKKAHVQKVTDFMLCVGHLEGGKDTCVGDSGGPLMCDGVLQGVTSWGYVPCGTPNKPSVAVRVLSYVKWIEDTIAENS

Row | SMILES | IC50 (Human Factor XIIa) | IC50 (Plasma Kallikrein) | IC50 (KLK1) | IC50 (FXa) | IC50 (Plasmin) | IC50 (Thrombin) | IC50 (Trypsin)
1 | CN1Cc2cc(OCC34COC(CNc5cccc6c(N)nccc56)(C3)C4)ccc2C1=O [Example 6621, 5-((1-(((1-aminoisoquinolin-5-yl)amino)methyl)-2-oxabicyclo[2.1.1]hexan-4-yl)methoxy)-2-methylisoindolin-1-one] | 0.1 to 0.3 µM | > 40 µM | 3 to 10 µM | > 40 µM | > 40 µM | > 40 µM | > 40 µM
2 | Cn1ccc(OCC23CCOC(CNc4cccc5c(N)nccc45)(C2)C3)nc1=O [Example 10940, 4-((1-(((1-aminoisoquinolin-5-yl)amino)methyl)-2-oxabicyclo[3.1.1]heptan-5-yl)methoxy)-1-methylpyrimidin-2(1H)-one] | 0.1 to 0.3 µM | > 40 µM | 10 to 40 µM | > 40 µM | > 40 µM | > 40 µM | 10 to 40 µM
3 | Cn1ccc(OCC23CC(CNc4cccc5c(N)nccc45)(CCO2)C3)cc1=O [Example 11001, 4-((5-(((1-aminoisoquinolin-5-yl)amino)methyl)-2-oxabicyclo[3.1.1]heptan-1-yl)methoxy)-1-methylpyridin-2(1H)-one] | 0.1 to 0.3 µM | > 40 µM | 10 to 40 µM | > 40 µM | > 40 µM | > 40 µM | 10 to 40 µM
4 | Nc1nccc2c(NCC34CC(COc5ccn6cnnc6c5)(CCO3)C4)cccc12 [Example 10926, 5-N-[[5-([1,2,4]Triazolo[4,3-a]pyridin-7-yloxymethyl)-2-oxabicyclo[3.1.1]heptan-1-yl]methyl]isoquinoline-1,5-diamine] | 0.01 to 0.1 µM | > 40 µM | 3 to 10 µM | > 40 µM | > 40 µM | > 40 µM | 3 to 10 µM
5 | Cn1ccc(OCC23CN(CCCc4ccccc4)C(CNc4cccc5c(N)nccc45)(C2)C3)cc1=O [Example 12019, 4-((1-(((1-Aminoisoquinolin-5-yl)amino)methyl)-2-(3-phenylpropyl)-2-azabicyclo[2.1.1]hexan-4-yl)methoxy)-1-methylpyridin-2(1H)-one] | 0.01 to 0.1 µM | > 40 µM | 1 to 3 µM | > 40 µM | > 40 µM | > 40 µM | > 40 µM
6 | Nc1nccc2c(NCC34CC(COc5ccc6c(c5)CNC6=O)(CO3)C4)cccc12 [Example 6618, 5-[[1-[[(1-Aminoisoquinolin-5-yl)amino]methyl]-2-oxabicyclo[2.1.1]hexan-4-yl]methoxy]-2,3-dihydroisoindol-1-one] | 0.01 to 0.1 µM | > 40 µM | 3 to 10 µM | 10 to 40 µM | > 40 µM | > 40 µM | 10 to 40 µM

The next lines start with the values.

Row | IC50 (Human Factor XIIa) | IC50 (Plasma Kallikrein) | IC50 (KLK1) | IC50 (FXa) | IC50 (Plasmin) | IC50 (Thrombin) | IC50 (Trypsin) | SMILES
7 | 0.01 to 0.1 µM | > 40 µM | 10 to 40 µM | 10 to 40 µM | > 40 µM | > 40 µM | 10 to 40 µM | Cc1cc(OCC23CCOC(CNc4cccc5c(N)nccc45)(C2)C3)cc(=O)n1C [Example 10928, 4-((1-(((1-Aminoisoquinolin-5-yl)amino)methyl)-2-oxabicyclo[3.1.1]heptan-5-yl)methoxy)-1,6-dimethylpyridin-2(1H)-one]
8 | 0.3 to 1 µM | > 40 µM | 10 to 40 µM | > 40 µM | > 40 µM | > 40 µM | > 40 µM | Cn1ccc(OCC23CC(CNc4cccc5c(N)nccc45)(CO2)C3)cc1=O [Example 2205, 4-((4-(((1-aminoisoquinolin-5-yl)amino)methyl)-2-oxabicyclo[2.1.1]hexan-1-yl)methoxy)-1-methylpyridin-2(1H)-one]
9 | 0.01 to 0.1 µM | > 40 µM | 1 to 3 µM | > 40 µM | 10 to 40 µM | > 40 µM | 10 to 40 µM | Nc1nccc2c(NCC34CC(COc5ccn6cnnc6c5)(CO3)C4)cccc12 [Example 6629, N5-((4-(([1,2,4]triazolo[4,3-a]pyridin-7-yloxy)methyl)-2-oxabicyclo[2.1.1]hexan-1-yl)methyl)isoquinoline-1,5-diamine]
10 |  | 10 to 40 µM | 3 to 10 µM | 10 to 40 µM | 10 to 40 µM | > 40 µM | > 40 µM | Cn1ccc(OCC23CN(C(=O)NCc4ccccc4)C(CNc4cccc5c(N)nccc45)(C2)C3)cc1=O [Example 12017, 1-(((1-aminoisoquinolin-5-yl)amino)methyl)-N-benzyl-4-(((1-methyl-2-oxo-1,2-dihydropyridin-4-yl)oxy)methyl)-2-azabicyclo[2.1.1]hexane-2-carboxamide]
11 | 0.3 to 1 µM | > 40 µM | 3 to 10 µM | > 40 µM | > 40 µM | > 40 µM | 3 to 10 µM | Nc1nccc2c(NCC34CC(COc5ccc6nnc(C(F)F)n6c5)(CO3)C4)cccc12 [Example 6620, N5-((4-(((3-(difluoromethyl)-[1,2,4]triazolo[4,3-a]pyridin-6-yl)oxy)methyl)-2-oxabicyclo[2.1.1]hexan-1-yl)methyl)isoquinoline-1,5-diamine]
12 | 0.1 to 0.3 µM | > 40 µM | 10 to 40 µM | > 40 µM | > 40 µM | > 40 µM | > 40 µM | Nc1nccc2c(N3CCC4(CC(COc5ccn6ccnc6c5)C4)C3)cccc12 (single isomer, unassigned) [Example 8806, 5-(trans*-2-((imidazo[1,2-a]pyridin-7-yloxy)methyl)-6-azaspiro[3.4]octan-6-yl)isoquinolin-1-amine]
13 | 0.01 to 0.1 µM | 10 to 40 µM | 1 to 3 µM | 10 to 40 µM | > 40 µM | > 40 µM | 10 to 40 µM | Cc1cnc2ccc(OCC34CC(CNc5cccc6c(N)nccc56)(CO3)C4)cn12 [Example 2212, N5-((1-(((3-methylimidazo[1,2-a]pyridin-6-yl)oxy)methyl)-2-oxabicyclo[2.1.1]hexan-4-yl)methyl)isoquinoline-1,5-diamine]
14 | 0.001 to 0.01 µM | 3 to 10 µM | 3 to 10 µM | 1 to 3 µM | 10 to 40 µM | > 40 µM | 10 to 40 µM | Cc1cc(OCC23CN(C(=O)NCc4ccccc4)C(CNc4cccc5c(N)nccc45)(C2)C3)cc(=O)n1C [Example 12038, 1-(((1-aminoisoquinolin-5-yl)amino)methyl)-N-benzyl-4-(((1,6-dimethyl-2-oxo-1,2-dihydropyridin-4-yl)oxy)methyl)-2-azabicyclo[2.1.1]hexane-2-carboxamide]
15 | 0.001 to 0.01 µM | 10 to 40 µM | 1 to 3 µM | 10 to 40 µM | 3 to 10 µM | > 40 µM | > 40 µM | Cn1ccc(OCC23CN(C(=O)Nc4ccccc4)C(CNc4cccc5c(N)nccc45)(C2)C3)cc1=O [Example 12036, 1-(((1-aminoisoquinolin-5-yl)amino)methyl)-4-(((1-methyl-2-oxo-1,2-dihydropyridin-4-yl)oxy)methyl)-N-phenyl-2-azabicyclo[2.1.1]hexane-2-carboxamide]
